Laboratory results reported in patent publication US11390624B2, “Pyrazolopyridines and triazolopyridines as A2A / A2B inhibitors” (Incyte Corporation, priority 2019, dated 2022).

Tests used:
[1] = target: human adenosine A2B receptor (Homo sapiens (Human), UniProt P29275); test: Adenosine A2B Receptor Cyclic AMP GS Assay; assay type: cell-based; conditions: HEK-293 cells, agonist NECA at 12 nM, cAMP accumulation; read-out: A2B—cAMP_EC50
Method: Stably transfected HEK-293 cells expressing the human adenosine A2B receptor (Perkin Elmer) were maintained in MEM culture medium with 10% FBS and 100 μg/mL Geneticin (Life Technologies). 18 to 24 hours prior to assay, geneticin was removed from culture. The cisbio cAMP-GS Dynamic kit utilizing the FRET (Fluorescence Resonance Energy Transfer) technology was used to measure cAMP accumulation in the cells. Compounds of the present disclosure at an appropriate concentration were mixed with 10000 cells/well in white 96 well half area plates (Perkin Elmer) for 30 min at room temperature gently shaking. Agonist, NECA (R&D Technologies) at 12 nM was added to each well for 60 min at room temperature gently shaking. Detection reagents, d2-labeled cAMP (acceptor) and anti-cAMP cryptate (donor) were added to each well for 60 min at RT gently shaking. Plates were read on Pherastar (BMG Labtech), fluorescence ratio 665/620 was calculated and EC50 determination was performed by fitting the curve of percent of control versus the log of the compound concentration using GraphPad Prism.

[2] = target: Adenosine A2A receptor (Tag-lite Adenosine A2A labeled cells) (Homo sapiens (Human), UniProt P29274); test: A2A Tag-lite HTRF Assay; assay type: binding; conditions: displacement of Adenosine A2A Receptor Red antagonist fluorescent ligand, 12.5 nM
Excerpt: The final concentration of DMSO was 1%.

human adenosine A2B receptor, sequence (P29275 whole entry): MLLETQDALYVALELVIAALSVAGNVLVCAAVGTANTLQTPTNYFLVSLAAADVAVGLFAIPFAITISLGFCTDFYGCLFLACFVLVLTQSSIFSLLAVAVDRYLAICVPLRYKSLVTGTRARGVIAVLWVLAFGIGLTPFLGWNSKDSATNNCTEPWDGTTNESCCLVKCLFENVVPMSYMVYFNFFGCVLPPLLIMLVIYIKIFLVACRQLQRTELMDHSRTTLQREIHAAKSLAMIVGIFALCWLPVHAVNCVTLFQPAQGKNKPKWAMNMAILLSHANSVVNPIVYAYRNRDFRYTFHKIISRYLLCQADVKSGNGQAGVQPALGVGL
Adenosine A2A receptor (Tag-lite Adenosine A2A labeled cells), sequence (P29274 whole entry): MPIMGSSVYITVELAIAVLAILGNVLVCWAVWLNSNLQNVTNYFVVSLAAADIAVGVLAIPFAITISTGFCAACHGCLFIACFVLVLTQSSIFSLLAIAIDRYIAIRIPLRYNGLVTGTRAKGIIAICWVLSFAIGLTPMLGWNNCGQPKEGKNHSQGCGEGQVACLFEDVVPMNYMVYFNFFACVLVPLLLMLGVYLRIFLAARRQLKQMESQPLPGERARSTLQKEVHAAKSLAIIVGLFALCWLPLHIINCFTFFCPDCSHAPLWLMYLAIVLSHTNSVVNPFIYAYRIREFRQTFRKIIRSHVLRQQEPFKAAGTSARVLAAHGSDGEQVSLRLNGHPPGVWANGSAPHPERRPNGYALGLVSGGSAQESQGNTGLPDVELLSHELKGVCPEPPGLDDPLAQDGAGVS

Compound | EC50 [1] [µM] | Ki [2] [µM]
N#Cc1cccc(-c2nc(N)c3nn(Cc4ccccn4)nc3c2-c2ccc3ncccc3c2)c1 [Example 22, 3-(4-amino-2-(pyridin-2-ylmethyl)-7-(quinolin-6-yl)-2H-[1,2,3]triazolo[4,5-c]pyridin-6-yl)benzonitrile] | ≤ 0.01 | ≤ 0.01
Cc1cccc(Cn2nc3c(N)nc(-c4cccc(C#N)c4)c(-c4ccncc4C)c3n2)n1 [Example 26, 3-(4-amino-2-((6-methylpyridin-2-yl)methyl)-7-(3-methylpyridin-4-yl)-2H-[1,2,3]triazolo[4,5-c]pyridin-6-yl)benzonitrile] | ≤ 0.01 | ≤ 0.01
N#Cc1cccc(-c2nc(N)c3nn(Cc4ccccn4)nc3c2-c2ccncn2)c1 [Example 16, 3-(4-amino-2-(pyridin-2-ylmethyl)-7-(pyrimidin-4-yl)-2H-[1,2,3]triazolo[4,5-c]pyridin-6-yl)benzonitrile] | ≤ 0.01 | ≤ 0.01
CC(C)n1nccc1-c1c(-c2cccc(C#N)c2)nc(N)c2nn(Cc3ncccc3F)nc12 [Example 34, 3-(4-amino-2-((3-fluoropyridin-2-yl)methyl)-7-(1-isopropyl-1H-pyrazol-5-yl)-2H-[1,2,3]triazolo[4,5-c]pyridin-6-yl)benzonitrile] | ≤ 0.01 | ≤ 0.01
Cn1nccc1-c1c(-c2cccc(C#N)c2)nc(N)c2nn(Cc3ncccc3F)nc12 [Example 35, 3-(4-amino-2-((3-fluoropyridin-2-yl)methyl)-7-(1-methyl-1H-pyrazol-5-yl)-2H-[1,2,3]triazolo[4,5-c]pyridin-6-yl)benzonitrile] | ≤ 0.01 | ≤ 0.01
N#Cc1cccc(-c2nc(N)c3nn(Cc4ccccn4)nc3c2-c2ccc3nccnc3c2)c1 [Example 23, 3-(4-amino-2-(pyridin-2-ylmethyl)-7-(quinoxalin-6-yl)-2H-[1,2,3]triazolo[4,5-c]pyridin-6-yl)benzonitrile] | 0.1 to 1 | ≤ 0.01
CCn1nccc1-c1c(-c2cccc(C#N)c2)nc(N)c2cn(Cc3ccccn3)nc12 [Example 2, 3-(4-amino-7-(1-ethyl-1H-pyrazol-5-yl)-2-(pyridin-2-ylmethyl)-2H-pyrazolo[4,3-c]pyridin-6-yl)benzonitrile] | ≤ 0.01 | ≤ 0.01
N#Cc1cccc(-c2nc(N)c3nn(Cc4ncccc4F)nc3c2-c2ccncn2)c1 [Example 30, 3-(4-amino-2-((3-fluoropyridin-2-yl)methyl)-7-(pyrimidin-4-yl)-2H-[1,2,3]triazolo[4,5-c]pyridin-6-yl)benzonitrile] | ≤ 0.01 | ≤ 0.01
Cc1cccc(Cn2cc3c(-c4ocnc4C)c(-c4cccc(C#N)c4)nc(N)c3n2)n1 [Example 13] | 0.01 to 0.1 | ≤ 0.01
CCn1nccc1-c1c(-c2cccc(C#N)c2)nc(N)c2nn(Cc3ncccc3F)nc12 [Example 33, 3-(4-amino-7-(1-ethyl-1H-pyrazol-5-yl)-2-((3-fluoropyridin-2-yl)methyl)-2H-[1,2,3]triazolo[4,5-c]pyridin-6-yl)benzonitrile] | ≤ 0.01 | ≤ 0.01
Cc1cccc(Cn2nc3c(N)nc(-c4cccc(C#N)c4)c(-c4ccncc4)c3n2)n1 [Example 25, 3-(4-amino-2-((6-methylpyridin-2-yl)methyl)-7-(pyridin-4-yl)-2H-[1,2,3]triazolo[4,5-c]pyridin-6-yl)benzonitrile] | ≤ 0.01 | ≤ 0.01
Cn1ccc(Cn2nc3c(N)nc(-c4cccc(C#N)c4)c(-c4ccncn4)c3n2)n1 [Example 44, 3-(4-amino-2-((1-methyl-1H-pyrazol-3-yl)methyl)-7-(pyrimidin-4-yl)-2H-[1,2,3]triazolo[4,5-c]pyridin-6-yl)benzonitrile] | ≤ 0.01 | ≤ 0.01
N#Cc1cccc(-c2nc(N)c3cn(Cc4ccccn4)nc3c2-c2ccncc2)c1 [Example 6, 3-(4-amino-2-(pyridin-2-ylmethyl)-7-(pyridin-4-yl)-2H-pyrazolo[4,3-c]pyridin-6-yl)benzonitrile] | ≤ 0.01 | ≤ 0.01
CCn1nccc1-c1c(-c2cccc(C#N)c2F)nc(N)c2nn(Cc3ccccn3)nc12 [Example 38, 3-(4-amino-7-(1-ethyl-1H-pyrazol-5-yl)-2-(pyridin-2-ylmethyl)-2H-[1,2,3]triazolo[4,5-c]pyridin-6-yl)-2-fluorobenzonitrile] | ≤ 0.01 | ≤ 0.01
Cc1ncoc1-c1c(-c2cccc(C#N)c2)nc(N)c2nn(Cc3ccccn3)cc12 [Example 12, 3-(7-amino-4-(4-methyloxazol-5-yl)-2-(pyridin-2-ylmethyl)-2H-pyrazolo[3,4-c]pyridin-5-yl)benzonitrile] | 0.01 to 0.1 | ≤ 0.01
N#Cc1cccc(-c2nc(N)c3cn(Cc4ccccc4F)nc3c2-c2ccncn2)c1 [Example 7, 3-(4-amino-2-(2-fluorobenzyl)-7-(pyrimidin-4-yl)-2H-pyrazolo[4,3-c]pyridin-6-yl)benzonitrile] | ≤ 0.01 | ≤ 0.01
Cc1ncoc1-c1c(-c2cccc(C#N)c2)nc(N)c2nn(Cc3ncccc3F)nc12 [Example 36, 3-(4-amino-2-((3-fluoropyridin-2-yl)methyl)-7-(4-methyloxazol-5-yl)-2H-[1,2,3]triazolo[4,5-c]pyridin-6-yl)benzonitrile] | ≤ 0.01 | ≤ 0.01
Cc1ncoc1-c1c(-c2cccc(C#N)c2)nc(N)c2nn(Cc3ccccn3)nc12 [Example 17, 3-(4-amino-7-(4-methyloxazol-5-yl)-2-(pyridin-2-ylmethyl)-2H-[1,2,3]triazolo[4,5-c]pyridin-6-yl)benzonitrile] | ≤ 0.01 | ≤ 0.01
CCn1nccc1-c1c(-c2cccc(C#N)c2)nc(N)c2nn(Cc3ccccn3)nc12 [Example 18, 3-(4-amino-7-(1-ethyl-1H-pyrazol-5-yl)-2-(pyridin-2-ylmethyl)-2H-[1,2,3]triazolo[4,5-c]pyridin-6-yl)benzonitrile] | ≤ 0.01 | ≤ 0.01
N#Cc1cccc(-c2nc(N)c3nn(Cc4ncccc4F)nc3c2-c2ccncc2)c1 [Example 31, 3-(4-amino-2-((3-fluoropyridin-2-yl)methyl)-7-(pyridin-4-yl)-2H-[1,2,3]triazolo[4,5-c]pyridin-6-yl)benzonitrile] | ≤ 0.01 | ≤ 0.01
N#Cc1cccc(-c2nc(N)c3cn(Cc4ncccc4F)nc3c2-c2ccncn2)c1 [Example 3, 3-(4-amino-2-((3-fluoropyridin-2-yl)methyl)-7-(pyrimidin-4-yl)-2H-pyrazolo[4,3-c]pyridin-6-yl)benzonitrile] | 0.01 to 0.1 | ≤ 0.01
Cc1cccc(Cn2cc3c(-c4ccncn4)c(-c4cccc(C#N)c4)nc(N)c3n2)n1 [Example 10, 3-(7-amino-2-((6-methylpyridin-2-yl)methyl)-4-(pyrimidin-4-yl)-2H-pyrazolo[3,4-c]pyridin-5-yl)benzonitrile] | ≤ 0.01 | ≤ 0.01
N#Cc1cccc(-c2nc(N)c3nn(Cc4ccccn4)nc3c2-c2cnco2)c1 [Example 21, 3-(4-amino-7-(oxazol-5-yl)-2-(pyridin-2-ylmethyl)-2H-[1,2,3]triazolo[4,5-c]pyridin-6-yl)benzonitrile] | ≤ 0.01 | ≤ 0.01
CCn1nccc1-c1c(-c2cccc(C#N)c2)nc(N)c2nn(Cc3cccc(C)n3)cc12 [Example 11, 3-(7-amino-4-(1-ethyl-1H-pyrazol-5-yl)-2-((6-methylpyridin-2-yl)methyl)-2H-pyrazolo[3,4-c]pyridin-5-yl)benzonitrile] | 0.01 to 0.1 | ≤ 0.01
Cc1ncoc1-c1c(-c2cccc(C#N)c2)nc(N)c2nn(Cc3ccn(C)n3)nc12 [Example 45, 3-(4-amino-2-((1-methyl-1H-pyrazol-3-yl)methyl)-7-(4-methyloxazol-5-yl)-2H-[1,2,3]triazolo[4,5-c]pyridin-6-yl)benzonitrile] | ≤ 0.01 | ≤ 0.01
Cc1nc(CO)c(-c2c(-c3cccc(C#N)c3)nc(N)c3nn(Cc4ccccn4)nc23)o1 [Example 20, 3-(4-amino-7-(4-(hydroxymethyl)-2-methyloxazol-5-yl)-2-(pyridin-2-ylmethyl)-2H-[1,2,3]triazolo[4,5-c]pyridin-6-yl)benzonitrile] | ≤ 0.01 | ≤ 0.01
Cc1ncoc1-c1c(-c2cccc(C#N)c2F)nc(N)c2nn(CCc3ccccn3)nc12 [Example 49, 3-(4-amino-7-(4-methyloxazol-5-yl)-2-(2-(pyridin-2-yl)ethyl)-2H-[1,2,3]triazolo[4,5-c]pyridin-6-yl)-2-fluorobenzonitrile] | 0.01 to 0.1 | ≤ 0.01
CCn1nccc1-c1c(-c2cccc(C#N)c2)nc(N)c2nn(Cc3cccc(C)n3)nc12 [Example 28, 3-(4-amino-7-(1-ethyl-1H-pyrazol-5-yl)-2-((6-methylpyridin-2-yl)methyl)-2H-[1,2,3]triazolo[4,5-c]pyridin-6-yl)benzonitrile] | ≤ 0.01 | ≤ 0.01
N#Cc1cccc(-c2nc(N)c3nn(Cc4ccccn4)cc3c2-c2ccncn2)c1 [Example 8, 3-(7-amino-2-(pyridin-2-ylmethyl)-4-(pyrimidin-4-yl)-2H-pyrazolo[3,4-c]pyridin-5-yl)benzonitrile] | ≤ 0.01 | ≤ 0.01
